Tests used:
[1] = system: astrocyte cells (non-cancer control); assay: IC50 for inhibiting cell growth in astrocyte cells (non-cancer control); type: cell-based, human; details: inhibition of cell growth
Experimental: (§1) Cell Culture. The rhabdomyosarcoma cell lines RH30, RH18, and RD were cultured in RPMI-1640 medium with 10% FBS. RH18 was a gift from Dr. P. J. Houghton. Glioblastoma cell line U87 cells were cultured in Minimum Essential Medium Eagle (MEM), supplemented with 1 mM sodium pyruvate, 1% nonessential amino acids, 0.15% sodium bicarbonate, and 10% fetal bovine serum (FBS); T98G cells were cultured in MEM with 10% FBS; A172 cells were cultured in Dulbecco's modified Eagle's medium (DMEM) with 4.5 g/L glucose, and supplemented with 10% FBS; U251 cells were cultured in Roswell Park Memorial Institute medium with 5% FBS. Immortalized human astrocytes (a kind gift from Dr. Russ Pieper, University of California San Francisco) were grown in DMEM/F12 with 4.5 g/L of glucose, supplemented with 10% FBS. All cells were grown at 37° C. in 5% CO2-[…]. All cell lines unless specified were originally obtained from ATCC. They were not further authenticated.
(§2) In this example, samples of glioblastoma cells (U87) and astrocyte cells (non-cancer control) were exposed various disclosed compounds to determine the effectiveness of the compounds for inhibiting cell growth.

glioblastoma cells (U87) = assay: IC50 for inhibiting cell growth in glioblastoma cells (U87); type: cell-based, human; details: inhibition of cell growth
Experimental: as §1, §2

[2] = system: GBM lines (U87, A172, U251, and T98G); assay: Cellular assays using GBM cell lines and immortalized astrocytes; type: cell-based, human; details: four GBM lines (U87, A172, U251, T98G) versus astrocytes
Experimental: as §1
To investigate whether AVIL is a viable drug target, a platform of small-molecule microarray was utilized (Bradner et al., 2006a; Bradner et al., 2006b) in order to identify compounds that interact with the AVIL protein. 50,000 small molecules were screened with recombinant advillin protein, including commercially available compounds, products of diversity-oriented synthesis, and known bioactive compounds. From these compounds, 82 advillin-interacting compounds were identified (FIG. 7A). […] Pubchem ID for the three compounds are as follows: Compound A is CID 56750508, Compound B is CID 56890068, and Compound C is CID 70768068.

[3] = system: RH30 rhabdomyosarcoma cells; assay: Cell survival / crystal violet staining of RH30 cells; type: cell-based; details: 20 μM
Experimental: as §1
(§3) RH30 and RD are rhabdomyosarcoma cells. MSC is mesenchymal stem cells, as a non-cancer control.

[4] = molecular target: T1, advillin recombinant protein (AVIL) (Homo sapiens, UniProt O75366); assay: Thermal shift assay; type: binding; details: for binding with advillin recombinant protein: thermal shift assay
T1 construct: MBP (N, cleaved yes); made in house; host or cells: E. coli BL21 (DE3)
T1 sequence (O75366 1-819): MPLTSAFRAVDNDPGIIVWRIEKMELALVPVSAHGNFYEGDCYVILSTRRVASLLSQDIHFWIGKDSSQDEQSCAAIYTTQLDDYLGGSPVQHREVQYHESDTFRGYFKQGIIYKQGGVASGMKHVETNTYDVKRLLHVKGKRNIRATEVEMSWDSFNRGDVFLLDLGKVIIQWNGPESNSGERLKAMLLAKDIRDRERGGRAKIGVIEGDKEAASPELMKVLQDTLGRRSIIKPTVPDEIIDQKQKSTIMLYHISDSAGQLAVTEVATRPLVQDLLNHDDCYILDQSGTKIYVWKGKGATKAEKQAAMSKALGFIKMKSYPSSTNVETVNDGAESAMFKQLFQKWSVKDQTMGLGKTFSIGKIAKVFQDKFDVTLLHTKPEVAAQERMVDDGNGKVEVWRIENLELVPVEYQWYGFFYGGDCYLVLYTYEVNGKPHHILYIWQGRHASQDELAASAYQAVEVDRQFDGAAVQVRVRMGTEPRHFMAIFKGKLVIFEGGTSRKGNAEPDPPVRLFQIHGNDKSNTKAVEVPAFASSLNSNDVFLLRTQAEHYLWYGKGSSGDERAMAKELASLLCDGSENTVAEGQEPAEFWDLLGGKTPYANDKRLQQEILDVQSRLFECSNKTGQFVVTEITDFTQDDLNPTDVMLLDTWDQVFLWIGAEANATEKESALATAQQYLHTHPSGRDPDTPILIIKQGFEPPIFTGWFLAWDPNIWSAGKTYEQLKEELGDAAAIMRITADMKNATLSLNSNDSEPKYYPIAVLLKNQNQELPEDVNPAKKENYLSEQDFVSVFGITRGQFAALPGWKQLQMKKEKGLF
Experimental: Protein purification. The sequence for human Advillin (AVIL) was cloned into the pMAL-c4x vector. The corresponding plasmid was transformed into BL21 (DE3) cells. Expression of MBP-AVIL was induced at OD600≈0.7 by the addition of 1 mM IPTG, and continued for 18 hrs at 23° C. Harvested cells were subsequently resuspended in 20 mM Tris-HCl pH 7.4, 200 mM NaCl, 1 mM EDTA, 1 mM DTT (Wash Buffer), supplemented with Complete Protease Inhibitor Cocktail (Roche), lysed in Emulsiflex C3 (AVESTIN) and cell debris was removed by centrifugation. MBP-AVIL was immobilized on Amylose Resin (New England BioLabs) followed by extensive washing (>50 column volumes) with Wash Buffer. Protein was eluted with Wash Buffer supplemented with 10 mM Maltose. After overnight incubation with TEV protease, MBP-tag was removed by size exclusion on HiLoad 16/600 Superdex 200 pg columns, previously equilibrated to 20 mM HEPES, pH 7.4, 50 mM NaCl, 1 mM DTT (Protein Buffer). Recombinant AVIL was flash-frozen in liquid nitrogen and stored in −80° C.
Thermal shift assay. SYPRO Orange (ThermoFisher Scientific) was added to 0.5 mg/ml AVIL (in Protein Buffer) in a 1:4500 ratio. 2.5 uL increasing concentrations of candidate compounds were added to 22.5 μL of AVIL/SYPRO Orange mixture on a 96 well plate (10% final concentration of DMSO). Protein unfolding was measured in a CFX96 qPCR (Bio-Rad) instrument with 0.2° C./15 sec steps, over the range of 20-90° C.

U87 cells = assay: Microarray analysis of U87 cells treated with compounds (gene ontology, GSEA); type: cell-based, human; details: gene set downregulated by siAVIL
Experimental: (§4) The effect of the three compounds on LIN28B expression was tested. […] To test whether the compounds can trigger transcriptome response similar to siAVIL, a microarray analysis of the U87 cells treated with these compounds was performed. Strikingly, cells treated with all three compounds had similar transcriptome profiles when compared to that of the siAVIL transfected cells, by both gene ontology and Gene Set Enrichment analyses (example in FIGS. 7F and 7G).

[5] = system: RD rhabdomyosarcoma cells; assay: Cell survival / crystal violet staining of RD cells; type: cell-based; details: 20 μM
Experimental: as §1, §3

[6] = system: MSC mesenchymal stem cells (non-cancer control); assay: Cell survival / crystal violet staining of MSC cells; type: cell-based; details: 20 μM
Source text: as §3

U87 xenograft = U87 xenograft model, intra-tumor injection; type: in vivo, NIH-III Nude mice
Experimental: Astrocytes stably expressing AVIL or an empty vector were injected subcutaneously into the flanks of NIH-III Nude mice. Around 2 million cells were used per injection. The animals were monitored twice a week. For drug treatment, 1.5 million U87 cells were injected subcutaneously into the flanks of NIH-III Nude mice. Compound 56750508 was dissolved in 50% DMSO, 15% ethanol, and 35% water. After tumors became visible (around 2 weeks), 50 ul drug solution or solvent was injected intra-tumorly. Three injections were performed with two day intervals.
as §4

[7] = three intra-tumor injections with two day intervals, versus solvent control, at harvest

Compound | IC50 (glioblastoma cells (U87); Homo sapiens) | IC50 ([1]; Homo sapiens, Astrocyte) | further results
Nc1cc(N2CCCC(CO)(CCCc3ccccc3)C2)nc(N)n1 (stereo not shown) [H] |  |  | IC50 [1]: 59 µM; IC50 (glioblastoma cells (U87)): 8 µM
Cc1nccc(N2CCCC(CO)(CCCc3ccccc3)C2)n1 (stereo not shown) [Compound I] | 19 µM | 80 µM | 
Nc1nccc(N2CCCC(CO)(CCCc3ccccc3)C2)n1 (stereo not shown) [Compound A] | 9 µM | 55 µM | IC50 values in GBM lines compared to astrocytes [2]: significantly different IC50 values; effect on RH30 cells [3]: most if not all of the RH30 and RD cells were wiped out; melting temperature (Tm) shift of AVIL protein ([4]; increasing concentrations of compound): dose-dependent melting temperature (Tm) shift; binding with advillin recombinant protein [4]: confirmed binding; GSEA enrichment score (U87 cells): highest GSEA enrichment score; effect on RD cells [5]: most if not all of the RH30 and RD cells were wiped out; effect on MSC cells [6]: no significant effect; side effect in the animals (U87 xenograft; three injections): did not observe any obvious side effect; tumor volume (U87 xenograft; [7]): significantly smaller; tumor weight (U87 xenograft; [7]): significantly smaller
c1ccc(CCC2CCN(CC3[C@H]4CNC[C@@H]34)CC2)cc1 (stereo partly shown) [Compound B] |  |  | IC50 values in GBM lines compared to astrocytes [2]: significantly different IC50 values; binding with advillin recombinant protein [4]: confirmed binding
CN(Cc1ccc(Oc2ccccc2)cc1)C(=O)C1C[C@@H](O)CN1 (stereo partly shown) [Compound C] |  |  | IC50 values in GBM lines compared to astrocytes [2]: significantly different IC50 values; binding with advillin recombinant protein [4]: confirmed binding
Nc1cc(N2CCC(CO)(CCCc3ccccc3)CC2)nc(N)n1 [D] | 2.5 µM | 51 µM | 

The next lines start with results.

IC50 (glioblastoma cells (U87); Homo sapiens) | Compound | IC50 ([1]; Homo sapiens, Astrocyte) | further results
> 80 µM | CCCC1(CO)CCCN(c2cc(N3CCN(C)CC3)nc(N)n2)C1 (stereo not shown) [L] | > 80 µM | 
20 µM | Nc1cc(N2CCCC(CO)(CCCc3ccccc3)C2)ncn1 (stereo not shown) [J] | > 80 µM | 
1 µM | Nc1nccc(N2CCCC(CCc3ccccc3)C2)n1 (stereo not shown) [E] | 30 µM | 
39 µM | Nc1cc(N2CCCC(CCCc3ccccc3)(C(=O)O)C2)nc(N)n1 (stereo not shown) [K] | 34 µM | 
10 µM | Nc1cc(N2CCCC(CO)(CCCc3ccccc3)C2)nc(N)n1 (stereo not shown) [G] | > 80 µM | 
4 µM | Nc1nccc(N2CCC(CO)(CCCc3ccccc3)CC2)n1 [F] | 28 µM | 

From patent US11957682B2, “Compounds and methods for regulating, limiting, or inhibiting AVIL expression” (University of Virginia Patent Foundation, priority 2017, dated 2024)
